Here are results for nine molecules from ChEMBL document CHEMBL1201862, “PubChem BioAssay data set” (2004).

Some test systems named below: SK-MEL-2; SK-MEL-5; HCT-15; UACC-257; SW-620; MOLT-4; ACHN; A549; MDA-N; M14; U-251; KM12; 786-0; SF-268; SNB-19; HL-60; SK-MEL-28; HCC 2998; DU-145.
Common to all, as to assay: NCI-60 cell line screen, 48 h

Structures are written as SMILES.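 Values below derive from 48-hour exposures of cells grown in 96-well plates, with endpoints linearly interpolated between the two concentrations bracketing the appropriate inhibition level. GI50 marks 50% less growth.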 Active and inactive are the calls of the source. Cut-off read from the data, not from the text of the source: active = GI50 up to about 1.1 µM and inactive = higher.

With `COc1ccc2c(ccc3c(COC(=O)NC(C)C)c(COC(=O)NC(C)C)n(C)c32)c1`, the GI50 in the experiment on SK-MEL-2 was 17.1 µM (inactive); with SK-MEL-5, 13.2 µM (inactive); in the experiment with HCT-15 it was 9.79 µM; with UACC-257 it was 12.7 µM (inactive); in the experiment on SW-620, 11.5 µM (inactive); with MOLT-4, 3.34 µM (inactive). Besides, the GI50 with ACHN was 1.81 µM (inactive); with A549, 11.3 µM (inactive); with MDA-N, 12.3 µM (inactive); in the experiment with M14, 9.06 µM (inactive); in the experiment with U-251 it was 15.1 µM (inactive); with KM12, 11.5 µM (inactive). Also, the GI50 with 786-0 is 3.26 µM (inactive); in the experiment with SF-268 it was 5.19 µM (inactive); in the experiment on SNB-19 it was 14.2 µM (inactive).
Consider `CN1CCN([C@H]2C[C@H]3[C@@H]4CC=C5C[C@@H](N6CCCC6)CC[C@]5(C)[C@H]4CC[C@]3(C)[C@H]2O)CC1`, for which the GI50 was > 100 µM (inactive) with SK-MEL-2; 18.8 µM (inactive) in the experiment with SK-MEL-5; 38.4 µM in the experiment with HCT-15; 21.2 µM (inactive) in the experiment on HL-60; 23.2 µM (inactive) in the experiment with UACC-257; 33.4 µM (inactive) in the experiment with SW-620. Also, the GI50 in the experiment on MOLT-4 was 23.7 µM (inactive); in the experiment on ACHN it was > 100 µM (inactive); with A549, 37.8 µM (inactive); in the experiment with MDA-N it was 19 µM (inactive); in the experiment with M14, 15.6 µM (inactive); in the experiment on U-251 it was 59.2 µM (inactive). Moreover, the GI50 with SK-MEL-28 is 20.6 µM (inactive); in the experiment with KM12, 56 µM (inactive); in the experiment with 786-0, 38.4 µM (inactive); in the experiment with HCC 2998, 33.3 µM (inactive); with SF-268 it was 32.7 µM (inactive); with SNB-19, 90.4 µM (inactive).
In the case of `CCNc1ccc2c(c1)Cc1ccccc1-2`, the GI50 in the experiment on SK-MEL-2 was 56.1 µM (inactive); in the experiment with SK-MEL-5, 25.8 µM (inactive); with HCT-15, 7.38 µM; in the experiment on HL-60, 37.3 µM (inactive); in the experiment with UACC-257 it was 49.7 µM (inactive); in the experiment on SW-620 it was 83.6 µM (inactive). Also, the GI50 with MOLT-4 was 12.9 µM (inactive); in the experiment on ACHN, 77.4 µM (inactive); in the experiment on A549, 73.5 µM (inactive); in the experiment with M14 it was 66.5 µM (inactive); in the experiment on U-251, 44.3 µM (inactive); in the experiment with SK-MEL-28, > 100 µM (inactive). The GI50 is 26.1 µM (inactive) with KM12; > 100 µM (inactive) in the experiment on 786-0; 9.71 µM (inactive) with HCC 2998; 46.2 µM (inactive) in the experiment with SF-268; 48.1 µM (inactive) in the experiment on SNB-19; 59.8 µM (inactive) in the experiment on DU-145.
In the case of `CCOC(=O)CCC(C(=O)OCC)n1nnc2ccc(Nc3c(C)[n+]([O-])c4cc(Cl)ccc4[n+]3[O-])cc21` (stereo unspecified), the GI50 in the experiment on SK-MEL-2 is 21.7 µM (inactive); with HCT-15 it was 22.8 µM; in the experiment on HL-60, 29.9 µM (inactive); in the experiment on UACC-257 it was 16.3 µM (inactive); with MOLT-4, 38.2 µM (inactive); in the experiment with ACHN, 34.7 µM (inactive). Also, the GI50 is 61.5 µM (inactive) in the experiment on A549; 19 µM (inactive) in the experiment on M14; 51.8 µM (inactive) in the experiment with U-251; 22.2 µM (inactive) in the experiment with KM12; 45.4 µM (inactive) with 786-0; 16.8 µM (inactive) in the experiment on HCC 2998. Besides, the GI50 was 18.8 µM (inactive) with SF-268, > 100 µM (inactive) in the experiment with SNB-19 and 30.4 µM (inactive) in the experiment with DU-145.
`O=C(NCc1ccc(Cl)cc1)c1cc2sccc2nc1C(F)(F)F`: the GI50 in the experiment on SK-MEL-2 was 50 µM (inactive); in the experiment with SK-MEL-5, 49.7 µM (inactive); in the experiment with UACC-257, 69 µM (inactive); with SW-620, 54.2 µM (inactive); in the experiment on MOLT-4 it was > 100 µM (inactive); in the experiment on ACHN, 20.6 µM (inactive). The GI50 is 34.2 µM (inactive) in the experiment with A549; > 100 µM (inactive) with MDA-N; > 100 µM (inactive) with M14; 18.9 µM (inactive) in the experiment with U-251; 55.7 µM (inactive) with SK-MEL-28; 87.1 µM (inactive) with KM12. Besides, the GI50 is 18.2 µM (inactive) in the experiment with 786-0, 24.2 µM (inactive) in the experiment with SF-268 and 22.5 µM (inactive) in the experiment with SNB-19.
Consider `COc1cc([C@@H]2c3cc4c(cc3[C@@H](NCCNCCO)[C@H]3COC(=O)[C@H]23)OCO4)cc(OC)c1O`, for which the GI50 is 2.78 µM (inactive) in the experiment with SK-MEL-2; 0.659 µM (active) in the experiment with SK-MEL-5; 34.6 µM with HCT-15; 5.02 µM (inactive) with UACC-257; 2.84 µM (inactive) with SW-620; 0.0267 µM (active) in the experiment with MOLT-4. The GI50 is 0.406 µM (active) in the experiment on A549; 3.88 µM (inactive) with MDA-N; 3.48 µM (inactive) in the experiment with M14; 0.813 µM (active) in the experiment on U-251; 2.67 µM (inactive) in the experiment with SK-MEL-28; 3.72 µM (inactive) with KM12. Further, the GI50 in the experiment on 786-0 is 0.762 µM (active); with SNB-19 it was 0.836 µM (active).
Regarding `CC12CC3c4ccccc4CN1C3(c1ccccc1)OC2=O` (stereo unspecified), the GI50 in the experiment with SK-MEL-2 was > 100 µM (inactive); with SK-MEL-5, > 100 µM (inactive); with HCT-15, over 100 µM; with HL-60, > 100 µM (inactive); in the experiment with UACC-257, > 100 µM (inactive); in the experiment on SW-620, > 100 µM (inactive). In addition, the GI50 in the experiment with MOLT-4, with ACHN, with A549, in the experiment with M14, with U-251 and with SK-MEL-28 was > 100 µM (inactive) in each case. The GI50 in the experiment on KM12, in the experiment on 786-0, in the experiment with SF-268, in the experiment on SNB-19 and with DU-145 was > 100 µM (inactive) throughout.
For the molecule `CCSC1=N/C(=C\c2ccco2)C(Nc2ccc(C)cc2)=N1`, the GI50 with SK-MEL-2 is > 100 µM (inactive); in the experiment with SK-MEL-5 it was > 100 µM (inactive); with HCT-15, over 100 µM; in the experiment on SW-620, > 100 µM (inactive); in the experiment on MOLT-4, > 100 µM (inactive); in the experiment with ACHN, > 100 µM (inactive). The GI50 in the experiment on A549, in the experiment on MDA-N, in the experiment on M14, in the experiment on U-251, in the experiment on SK-MEL-28 and with KM12 was > 100 µM (inactive) throughout. The GI50 with 786-0, in the experiment with SF-268, with SNB-19 and in the experiment on DU-145 was > 100 µM (inactive) each time.
On to `COc1cc2c(cc1OC)OC(c1c(OC)ccc(OC)c1O)CC2` (stereo unspecified), for which the GI50 in the experiment with SK-MEL-2 was > 100 µM (inactive); in the experiment on SK-MEL-5, 76.2 µM (inactive); in the experiment on HCT-15, over 100 µM; in the experiment on HL-60, 20.4 µM (inactive); in the experiment on UACC-257, > 100 µM (inactive); in the experiment on SW-620, > 100 µM (inactive). In addition, the GI50 with MOLT-4 is 71.9 µM (inactive); in the experiment with ACHN, 68.7 µM (inactive); with A549, > 100 µM (inactive); in the experiment with M14, > 100 µM (inactive); in the experiment with U-251, > 100 µM (inactive); in the experiment with SK-MEL-28, > 100 µM (inactive). Besides, the GI50 in the experiment with KM12, in the experiment on 786-0, with HCC 2998, with SF-268, in the experiment on SNB-19 and in the experiment on DU-145 was > 100 µM (inactive) each time.
